Measured values taken from paper PMC10581841, “Rapid Separation of Asiatic Acid, Quercetin, and Kaempferol from Traditional Chinese Medicine Centella asiatica (L.) Urban Using HSCCC-Semi-Prep-HPLC and the Assessment of Their Potential as Fatty Acid Synthase Inhibitors” (International Journal of Analytical Chemistry, 2023).
Read-outs that look alike come from different tables or passages of the source.

Molecular target: T1, fatty acid synthetase (FAS) (Anas platyrhynchos, UniProt A0A0D3LZ43)
T1 construct: native enzyme purified from fresh duck liver
T1 sequence (A0A0D3LZ43 1-2514): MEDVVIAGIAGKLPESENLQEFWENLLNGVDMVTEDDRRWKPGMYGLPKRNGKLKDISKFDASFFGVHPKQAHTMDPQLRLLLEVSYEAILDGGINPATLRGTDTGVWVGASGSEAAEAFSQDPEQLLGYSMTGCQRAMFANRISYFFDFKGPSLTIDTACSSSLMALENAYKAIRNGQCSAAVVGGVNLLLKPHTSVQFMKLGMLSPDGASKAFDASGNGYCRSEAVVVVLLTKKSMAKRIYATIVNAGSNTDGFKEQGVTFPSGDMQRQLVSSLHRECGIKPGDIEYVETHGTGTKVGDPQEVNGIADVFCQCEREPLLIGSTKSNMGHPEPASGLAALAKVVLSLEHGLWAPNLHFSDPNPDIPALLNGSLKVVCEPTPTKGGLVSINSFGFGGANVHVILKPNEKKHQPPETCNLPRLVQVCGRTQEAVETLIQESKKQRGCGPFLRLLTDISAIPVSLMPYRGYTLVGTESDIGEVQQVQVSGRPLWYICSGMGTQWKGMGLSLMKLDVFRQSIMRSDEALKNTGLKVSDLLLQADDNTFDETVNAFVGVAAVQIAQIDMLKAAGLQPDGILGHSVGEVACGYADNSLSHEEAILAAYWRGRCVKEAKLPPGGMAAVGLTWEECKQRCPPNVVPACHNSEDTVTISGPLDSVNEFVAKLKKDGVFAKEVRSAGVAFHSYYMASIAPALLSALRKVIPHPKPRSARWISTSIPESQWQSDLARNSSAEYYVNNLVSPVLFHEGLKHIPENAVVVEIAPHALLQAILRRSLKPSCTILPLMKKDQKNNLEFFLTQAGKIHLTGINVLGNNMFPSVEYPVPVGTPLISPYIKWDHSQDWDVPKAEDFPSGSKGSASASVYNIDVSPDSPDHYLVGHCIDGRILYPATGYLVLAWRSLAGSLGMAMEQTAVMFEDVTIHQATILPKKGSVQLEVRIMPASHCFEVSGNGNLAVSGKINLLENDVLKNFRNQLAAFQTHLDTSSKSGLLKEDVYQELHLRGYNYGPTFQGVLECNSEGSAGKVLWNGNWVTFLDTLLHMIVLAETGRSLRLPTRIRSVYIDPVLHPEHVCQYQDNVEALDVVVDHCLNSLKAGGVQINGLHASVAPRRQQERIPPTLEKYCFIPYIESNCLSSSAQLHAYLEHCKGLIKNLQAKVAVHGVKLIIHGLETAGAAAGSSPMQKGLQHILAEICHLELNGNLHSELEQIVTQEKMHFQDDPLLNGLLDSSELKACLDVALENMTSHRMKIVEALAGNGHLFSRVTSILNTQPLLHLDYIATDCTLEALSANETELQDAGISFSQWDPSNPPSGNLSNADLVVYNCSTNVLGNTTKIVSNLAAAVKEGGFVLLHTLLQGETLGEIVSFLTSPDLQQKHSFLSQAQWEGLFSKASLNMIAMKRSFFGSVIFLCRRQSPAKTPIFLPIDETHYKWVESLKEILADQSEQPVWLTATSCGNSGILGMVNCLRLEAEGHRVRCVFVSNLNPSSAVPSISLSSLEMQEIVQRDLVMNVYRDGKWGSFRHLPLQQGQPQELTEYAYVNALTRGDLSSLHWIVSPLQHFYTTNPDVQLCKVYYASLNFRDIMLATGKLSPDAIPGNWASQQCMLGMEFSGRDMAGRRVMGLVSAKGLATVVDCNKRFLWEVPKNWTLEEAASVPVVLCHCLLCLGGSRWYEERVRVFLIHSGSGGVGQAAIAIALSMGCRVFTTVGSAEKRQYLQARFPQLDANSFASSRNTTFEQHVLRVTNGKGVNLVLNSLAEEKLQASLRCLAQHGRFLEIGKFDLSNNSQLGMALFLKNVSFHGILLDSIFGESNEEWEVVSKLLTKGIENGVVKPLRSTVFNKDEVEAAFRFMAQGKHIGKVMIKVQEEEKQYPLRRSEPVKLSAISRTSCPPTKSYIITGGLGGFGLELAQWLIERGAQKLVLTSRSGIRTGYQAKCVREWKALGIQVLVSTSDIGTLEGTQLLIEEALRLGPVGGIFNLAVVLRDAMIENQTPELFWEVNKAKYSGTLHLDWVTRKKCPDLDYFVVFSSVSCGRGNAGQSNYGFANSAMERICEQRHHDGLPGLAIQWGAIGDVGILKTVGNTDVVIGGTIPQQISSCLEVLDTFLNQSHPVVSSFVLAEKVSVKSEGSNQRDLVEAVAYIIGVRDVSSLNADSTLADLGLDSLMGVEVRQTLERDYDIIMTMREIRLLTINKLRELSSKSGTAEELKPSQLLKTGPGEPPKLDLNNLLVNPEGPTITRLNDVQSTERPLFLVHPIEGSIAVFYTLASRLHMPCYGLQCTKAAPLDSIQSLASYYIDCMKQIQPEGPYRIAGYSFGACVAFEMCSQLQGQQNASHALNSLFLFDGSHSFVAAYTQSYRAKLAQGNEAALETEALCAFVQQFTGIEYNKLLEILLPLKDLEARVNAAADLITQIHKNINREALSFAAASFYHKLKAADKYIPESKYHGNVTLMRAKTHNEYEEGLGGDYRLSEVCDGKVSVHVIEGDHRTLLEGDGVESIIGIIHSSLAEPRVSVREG
Experiment: UV spectrophotometric FAS activity assay at […] nm (NADPH)
Format: biochemical

[1] = read-out: IC50 (μg/mL) (converted)

Row | Compound | IC50 [1] | IC50
1 | C[C@H]1[C@H](C)CC[C@]2(C(=O)O)CC[C@]3(C)C(=CC[C@@H]4[C@@]5(C)C[C@@H](O)[C@H](O)[C@@](C)(CO)[C@@H]5CC[C@]43C)[C@H]12 [AA, asiatic acid] | 19.5 µM | –
2 | O=c1c(O)c(-c2ccc(O)cc2)oc2cc(O)cc(O)c12 [KPL, kaempferol] | 129 µM | –
3 | C[C@H]1[C@H](C)CC[C@]2(C(=O)O)CC[C@]3(C)C(=CC[C@@H]4[C@@]5(C)C[C@@H](O)[C@H](O)[C@@](C)(CO)[C@@H]5[C@H](O)C[C@]43C)[C@H]12 [MA, madecassic acid] | – | 21.5 µM
4 | O=c1c(O)c(-c2ccc(O)c(O)c2)oc2cc(O)cc(O)c12 [QCN, quercetin] | – | 143 µM
